The results in this text go back to US9926281B2 (priority 2014, dated 2018).

The target of one experiment is human MMP14 (Homo sapiens (Human), UniProt P50281). Particulars: read-out: hMMP-14 potency IC50.
For a further experiment, the target named is human MMP13 (Homo sapiens (Human), UniProt P45452). The note with it: read-out: hMMP-13 potency IC50.
The target of the next experiment is human TACE (Homo sapiens (Human), UniProt P78536). Particulars: read-out: TACE potency IC50.
The target in the next experiment is human ADAMTS-5 (Homo sapiens (Human), UniProt Q9UNA0). The note with it: read-out: hADAMTS-5 potency IC50.
Sequence of human ADAMTS-5 (Q9UNA0 262-930): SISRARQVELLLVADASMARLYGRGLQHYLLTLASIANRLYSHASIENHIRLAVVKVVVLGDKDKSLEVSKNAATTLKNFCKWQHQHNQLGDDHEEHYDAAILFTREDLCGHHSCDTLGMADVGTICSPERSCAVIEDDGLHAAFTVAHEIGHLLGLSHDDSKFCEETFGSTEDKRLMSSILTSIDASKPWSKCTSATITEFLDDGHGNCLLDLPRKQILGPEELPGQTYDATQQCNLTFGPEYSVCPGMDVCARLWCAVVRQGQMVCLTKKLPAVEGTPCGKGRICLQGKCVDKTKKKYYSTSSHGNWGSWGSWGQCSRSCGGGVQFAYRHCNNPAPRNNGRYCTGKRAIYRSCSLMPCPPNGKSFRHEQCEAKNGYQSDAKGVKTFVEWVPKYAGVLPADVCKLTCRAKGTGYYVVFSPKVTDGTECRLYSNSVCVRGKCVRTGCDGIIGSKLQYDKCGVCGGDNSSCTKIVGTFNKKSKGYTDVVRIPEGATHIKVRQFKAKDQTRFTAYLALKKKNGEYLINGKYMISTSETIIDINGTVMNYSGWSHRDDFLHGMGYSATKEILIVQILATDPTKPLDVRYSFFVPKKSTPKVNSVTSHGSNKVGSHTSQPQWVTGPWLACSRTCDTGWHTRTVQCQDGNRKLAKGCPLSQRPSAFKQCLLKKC
The target in the next experiment is rnADAMTS-5 (1-564-6H) (Rattus norvegicus, UniProt Q6TY19). The note with it: read-out: Rat ADAMTS-5 potency IC50.

Broadly, the IC50 is the concentration that inhibits the measured activity by half.

Sequence of human TACE (P78536 whole entry, looked up, change not shown): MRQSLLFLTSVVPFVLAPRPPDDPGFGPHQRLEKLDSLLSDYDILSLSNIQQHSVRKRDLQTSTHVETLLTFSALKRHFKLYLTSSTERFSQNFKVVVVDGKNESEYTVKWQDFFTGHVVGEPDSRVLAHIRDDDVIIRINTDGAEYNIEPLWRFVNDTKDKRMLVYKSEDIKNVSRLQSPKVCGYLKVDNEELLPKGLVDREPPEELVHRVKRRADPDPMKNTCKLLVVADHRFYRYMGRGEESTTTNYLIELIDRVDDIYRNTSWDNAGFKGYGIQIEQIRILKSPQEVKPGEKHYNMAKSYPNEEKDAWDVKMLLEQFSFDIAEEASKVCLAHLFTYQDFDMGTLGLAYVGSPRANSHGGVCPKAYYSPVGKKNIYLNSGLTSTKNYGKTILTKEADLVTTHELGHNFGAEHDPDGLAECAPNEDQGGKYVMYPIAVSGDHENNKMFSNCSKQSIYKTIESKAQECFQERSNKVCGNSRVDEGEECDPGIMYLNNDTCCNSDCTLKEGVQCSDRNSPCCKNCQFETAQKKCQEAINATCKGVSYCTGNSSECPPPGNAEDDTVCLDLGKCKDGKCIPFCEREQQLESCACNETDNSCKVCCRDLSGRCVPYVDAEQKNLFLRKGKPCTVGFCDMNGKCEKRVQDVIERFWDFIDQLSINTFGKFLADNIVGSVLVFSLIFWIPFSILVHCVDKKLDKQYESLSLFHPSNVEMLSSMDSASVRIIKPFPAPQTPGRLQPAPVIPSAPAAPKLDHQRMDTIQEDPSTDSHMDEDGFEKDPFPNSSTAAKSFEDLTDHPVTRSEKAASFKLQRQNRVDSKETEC
Description for human ADAMTS-5: Finally, the fluorescence is read on the Envision (Perkin Elmer) after an incubation of 90 min at 37° C.
Description for human MMP13: Human MMP13 is preactivated by incubated the enzyme in the same buffer complemented with 1 mM freshly prepared p-Aminophenylmercuric acetate (AMPA) for 1 hour at 37° C.

As for `CC(=O)NCC1(CCC(=O)N2CCN(c3cc(Cl)cc(Cl)c3)CC2)NC(=O)NC1=O` (stereo not drawn) [Cpd 223, N-[[4-[3-[4-(3,5-dichlorophenyl)piperazin-1-yl]-3-oxo-propyl]-2,5-dioxo-imidazolidin-4-yl]methyl]acetamide], the IC50 at human MMP14 was over 20000 nM; on human MMP13 it was over 20000 nM; at human TACE it was over 4000 nM; at human ADAMTS-5, 70 nM.
Turning to `Cc1ccc(F)cc1N1CCN(C(=O)CCC2(C)NC(=O)NC2=O)CC1` (stereo not drawn) [compound 51, 5-[3-[4-(5-fluoro-2-methyl-phenyl)piperazin-1-yl]-3-oxo-propyl]-5-methyl-imidazolidine-2,4-dione], the results for the IC50 on human MMP14, on human TACE and at rnADAMTS-5 (1-564-6H) were over 20000 nM, over 3660 nM and 508 nM, respectively.
Regarding `COCC1(CC(C)C(=O)N2CCN(c3ccc(F)c(F)c3)[C@@H](C)C2)NC(=O)NC1=O` (stereo partly drawn) [compound 226, 5-[3-[(S)-4-(3,4-difluorophenyl)-3-methyl-piperazin-1-yl]-2-methyl-3-oxo-propyl]-5-(methoxymethyl)imidazolidine-2,4-dione], the 50% inhibitory concentration (IC50) at human MMP14 was 978 nM; at human MMP13, 3270 nM; on human TACE, over 4000 nM; on human ADAMTS-5, 22 nM.
Turning to `COCC1(CC(C)C(=O)N2CCN(c3cc(F)ccc3C)[C@@H](C)C2)NC(=O)NC1=O` (stereo partly drawn) [compound 228, 5-[3-[(3S)-4-(5-fluoro-2-methyl-phenyl)-3-methyl-piperazin-1-yl]-2-methyl-3-oxo-propyl]-5-(methoxymethyl)imidazolidine-2,4-dione], the IC50 is over 20000 nM on human MMP14, over 4000 nM at human MMP13, over 4000 nM on human TACE and 109 nM at human ADAMTS-5.
Regarding `COCC1(CC(C)C(=O)N2CCN(c3cccc(F)c3)[C@@H](C)C2)NC(=O)NC1=O` (stereo partly drawn) [compound 229, 5-[3-[(3S)-4-(3-fluorophenyl)-3-methyl-piperazin-1-yl]-2-methyl-3-oxo-propyl]-5-(methoxymethyl)imidazolidine-2,4-dione], the 50% inhibitory concentration (IC50) was 682 nM on human MMP14, 3850 nM on human MMP13, over 4000 nM at human TACE and 31 nM at human ADAMTS-5.
`COCC1(CC(C)C(=O)N2CCN(c3cc(F)ccc3C)CC2)NC(=O)NC1=O` (stereo not drawn) [compound 230, 5-[3-[4-(5-fluoro-2-methyl-phenyl)piperazin-1-yl]-2-methyl-3-oxo-propyl]-5-(methoxymethyl)imidazolidine-2,4-dione]: the IC50 at human MMP14 was over 20000 nM; on human MMP13, over 20000 nM; on human TACE it was 207 nM; at human ADAMTS-5 it was 24 nM.
With `COCC1(CC(C)C(=O)N2CCN(c3cccc(Cl)c3C)[C@@H](C)C2)NC(=O)NC1=O` (stereo partly drawn) [compound 232, 5-[3-[(3S)-4-(3-chloro-2-methyl-phenyl)-3-methyl-piperazin-1-yl]-2-methyl-3-oxo-propyl]-5-(methoxymethyl)imidazolidine-2,4-dione], the IC50 at human MMP14 is over 20000 nM; on human MMP13 it was over 20000 nM; on human TACE, over 4000 nM; at human ADAMTS-5, 47 nM.
Consider `CC(CC1(C2CN(C(=O)OC(C)(C)C)C2)NC(=O)NC1=O)C(=O)N1CCN(c2ccc(F)c(F)c2)CC1` (stereo not drawn) [compound 234, tert-butyl 3-[4-[3-[4-(3,4-difluorophenyl)piperazin-1-yl]-2-methyl-3-oxo-propyl]-2,5-dioxo-imidazolidin-4-yl]azetidine-1-carboxy late], for which the IC50 was 7 nM at human MMP14, 5.6 nM at human MMP13, over 4000 nM at human TACE and 28 nM at human ADAMTS-5.
The corresponding values for `CC(CC1(CCNC(=O)OC(C)(C)C)NC(=O)NC1=O)C(=O)N1CCN(c2ccc(F)c(F)c2)CC1` (stereo not drawn) [compound 235, tert-butyl N-[2-[4-[3-[4-(3,4-difluorophenyl)piperazin-1-yl]-2-methyl-3-oxo-propyl]-2,5-dioxo-imidazolidin-4-yl]ethyl]carbamate] are 26 nM, 21.2 nM, 1320 nM and 16 nM.
The corresponding values for `CC(CC1(C2CNC2)NC(=O)NC1=O)C(=O)N1CCN(c2ccc(F)c(F)c2)[C@@H](C)C1` (stereo partly drawn) [compound 247, 5-(azetidin-3-yl)-5-[3-[(3S)-4-(3,4-difluorophenyl)-3-methyl-piperazin-1-yl]-2-methyl-3-oxo-propyl]imidazolidine-2,4-dione] are over 4000 nM, over 20000 nM, over 19600 nM and 95 nM.
For `CC(CC1(C)NC(=O)NC1=O)C(=O)N1CCN(c2ccc(F)cc2)[C@@H](C)C1` (stereo partly drawn) [compound 365, 5-[3-[(3S)-4-(4-fluorophenyl)-3-methyl-piperazin-1-yl]-2-methyl-3-oxo-propyl]-5-methyl-imidazolidine-2,4-dione], the IC50 on human MMP14 was over 20000 nM; on human TACE it was over 9330 nM; on human ADAMTS-5, 72 nM.
Turning to `Cc1cc(C2(CCC(=O)N3CCN(c4cc(F)cc(F)c4)[C@@H](C)C3)NC(=O)NC2=O)ccn1` (stereo partly drawn) [compound 367, 5-[3-[(3S)-4-(3,5-difluorophenyl)-3-methyl-piperazin-1-yl]-3-oxo-propyl]-5-(2-methyl-4-pyridyl)imidazolidine-2,4-dione], the IC50 on human MMP14 is over 20000 nM; on human TACE it was over 4000 nM; at human ADAMTS-5 it was 44 nM.
Consider `CC(CC1(C)NC(=O)NC1=O)C(=O)N1CCN(c2cccc(-c3cn[nH]c3)c2)[C@@H](C)C1` (stereo partly drawn) [compound 371], for which the IC50 on human MMP14 is 682 nM; at human TACE, over 3730 nM; at human ADAMTS-5 it was 42 nM.
For the molecule `C[C@@H](C[C@@]1(C)NC(=O)NC1=O)C(=O)N1CCN(c2cc(F)cc(-c3cn[nH]c3)c2)[C@@H](C)C1` [compound 375, 5-[3-[(3S)-4-[3-fluoro-5-(1H-pyrazol-4-yl)phenyl]-3-methyl-piperazin-1-yl]-2-methyl-3-oxo-propyl]-5-methyl-imidazolidine-2,4-dione], the IC50 on human MMP14 is over 20000 nM; on human TACE, 1130 nM; on human ADAMTS-5 it was 30 nM.
For `C[C@H]1CN(C(=O)CCC2(c3cn(C)cn3)NC(=O)NC2=O)CCN1c1cc(F)cc(Cl)c1` (stereo partly drawn) [compound 389, 5-[3-[(3S)-4-(3-chloro-5-fluoro-phenyl)-3-methyl-piperazin-1-yl]-3-oxo-propyl]-5-(1-methylimidazol-4-yl)imidazolidine-2,4-dione] the same measures were over 20000 nM, over 4000 nM and 40 nM.
As for `Cc1nc(C2(CCC(=O)N3CCN(c4cc(F)cc(F)c4)[C@@H](C)C3)NC(=O)NC2=O)c(C)o1` (stereo partly drawn) [compound 396, 5-[3-[(3S)-4-(3,5-difluorophenyl)-3-methyl-piperazin-1-yl]-3-oxo-propyl]-5-(2,5-dimethyloxazol-4-yl)imidazolidine-2,4-dione], the 50% inhibitory concentration (IC50) was 7 nM at human MMP14, over 4000 nM on human TACE and 53 nM on human ADAMTS-5.
For `C[C@H]1CN(C(=O)CCC2(c3cnn(C)c3)NC(=O)NC2=O)CCN1c1cc(F)cc(F)c1` (stereo partly drawn) [compound 397, 5-[3-[(3S)-4-(3,5-difluorophenyl)-3-methyl-piperazin-1-yl]-3-oxo-propyl]-5-(1-methylpyrazol-4-yl)imidazolidine-2,4-dione], the figures for the IC50 at human MMP14, on human TACE and at human ADAMTS-5 were 26 nM, over 4000 nM and 37 nM, respectively.
